Measured values reported in PMC6934184, “Selective DNA-PKcs inhibition extends the therapeutic index of localized radiotherapy and chemotherapy” (The Journal of Clinical Investigation, 2019).

Biological target: T1, PIK3C3 (hVPS34) (Homo sapiens, UniProt Q8NEB9)
T1 construct: purchased Thermo Fisher Scientific (Life Technologies) SelectScreen
Experiment: SelectScreen Adapta
Format: biochemical
Conditions: ATP Km app
Summary of the method: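 Percent values come from Thermo SelectScreen profiling of NU5455, combining activity and binding assays. CSF1R was run in Z'LYTE format at Km app ATP, and CAMK1 in Adapta format with ATP listed at 10.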

T1 sequence (Q8NEB9 whole entry): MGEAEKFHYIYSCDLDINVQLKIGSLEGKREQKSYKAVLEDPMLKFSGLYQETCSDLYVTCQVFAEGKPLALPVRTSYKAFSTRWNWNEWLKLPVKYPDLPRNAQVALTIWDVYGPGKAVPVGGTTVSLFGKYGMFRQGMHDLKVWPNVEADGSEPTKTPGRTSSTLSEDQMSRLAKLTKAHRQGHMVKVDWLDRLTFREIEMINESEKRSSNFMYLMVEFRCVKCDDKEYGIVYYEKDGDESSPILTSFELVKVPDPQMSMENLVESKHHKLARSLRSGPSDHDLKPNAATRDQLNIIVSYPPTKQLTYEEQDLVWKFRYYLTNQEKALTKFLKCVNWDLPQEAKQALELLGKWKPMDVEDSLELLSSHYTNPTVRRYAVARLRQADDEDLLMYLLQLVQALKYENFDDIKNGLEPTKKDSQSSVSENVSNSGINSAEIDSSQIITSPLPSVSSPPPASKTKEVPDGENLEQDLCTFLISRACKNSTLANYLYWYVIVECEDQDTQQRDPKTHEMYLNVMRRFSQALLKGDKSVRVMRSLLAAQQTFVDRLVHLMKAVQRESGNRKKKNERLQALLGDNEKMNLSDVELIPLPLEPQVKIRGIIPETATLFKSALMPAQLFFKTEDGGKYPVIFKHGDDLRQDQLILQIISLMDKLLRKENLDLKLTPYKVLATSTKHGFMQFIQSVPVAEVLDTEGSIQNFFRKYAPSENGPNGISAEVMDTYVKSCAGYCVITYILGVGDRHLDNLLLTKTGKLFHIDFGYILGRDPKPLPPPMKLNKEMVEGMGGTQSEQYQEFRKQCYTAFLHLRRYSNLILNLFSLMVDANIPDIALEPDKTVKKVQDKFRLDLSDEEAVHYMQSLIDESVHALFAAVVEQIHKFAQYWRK

Question: For `CN(C(=O)CN1CCOCC1)c1ccc2sc3c(-c4cccc5c(=O)cc(N6CC7CCC(C6)O7)oc45)cccc3c2c1` [NU5455], which “% inhibition” value (1 µM) is on record?
Answer: 86%

Question: And the inhibition at 1 µM?
Answer: 85.9%
